Assay results taken from patent US12628822B2, “Plant pathogen defence elicitors” (UNIVERSITÉ LIBRE DE BRUXELLES, priority 2020, dated 2026).

System: Arabidopsis transcriptome
Test: cDNA microarray analysis of early transcriptomic changes in Arabidopsis seedlings
Format: in vivo, Arabidopsis thaliana
Method: Arabidopsis thaliana Columbia (Col-0) was the accession used for all the experiments. Seeds were surface sterilised by subsequent treatment with 50% v/v Et-OH and 3% bleach solution in agitation for 5 and 10 min, respectively. Seeds were then washed three times with distilled water and stratified for 3 days at 4° C. in the dark. For qPCR analysis and microarray experiments, seeds were sown on square petri dishes ([…]) containing half strength Murashige and Skoog (MS) salt, 2.5 mM MES, 1% w/v sucrose and 0.8% w/v plant agar. The experiments were performed using 14-day old seedlings grown vertically in a controlled growth cabinet with short day conditions ( 8/16 h light/dark; 100 μmol photons m^−2 s^−1) at 22±0.5° C. Treatments were performed by applying 40-50 μl of fresh-prepared and filtered solution per seedling.
For RNA extraction, 14-day old leaves from ten independent plants were collected at the indicated time point after treatments, pooled and frozen in liquid nitrogen. Total RNA was extracted from 100 mg of ground-frozen samples using the Maxwell® LEV Plant RNA Kit (Promega, Madison, WI, USA) and the RNA integrity was determined through NanoDrop 2000 UV-Vis Spectrophotometer (Thermo Scientific, Loughborough, UK). First-strand cDNA was synthesized by using SOLIScript® RT cDNA synthesis MIX (Solis Biodyne, Tartu, Estonia) and qPCRs were performed using SYBR® Selected MasterMix 2× (Applied Biosystems, Thermo Fisher Scientific, Waltham, USA), following the manufacturers' protocols. The cycling conditions consisted of an initial 7 min at 95° C., followed by 40 two-step cycles at 95° C. for 5 s and at 60° C. for 30 s. Melting curve analysis was performed after cycle completion to validate amplicon identity. Relative expression levels were calculated following the standard curve-based method (Larionov et al. A standard curve based method for relative real time PCR data processing, BMC Bioinformatics. 2005, vol. 6, 1) by using ACTIN as reference. Gene-specific primers used in this work are indicated below.
RNA sample preparation for microarray hybridization was carried out as described in the Applied Biosystems™ GeneChip™ Whole Transcript (WT) PLUS Reagent Kit User Guide (Thermo Fisher Scientific, Waltham, MA, USA). Briefly, 200 ng of total RNA was used to generate double-stranded cDNA. Twelve μg of subsequently synthesized cRNA were purified and reverse transcribed into single-stranded (ss)cDNA, where unnatural dUTP residues were incorporated. Purified and labelled sscDNAs were hybridised to Arabidopsis Gene 1.0 ST arrays (Affymetrix, Santa Clara, CA, USA) and the fluorescent signals were measured with an Applied Biosystems™ GeneChip Scanner 3000 7 G System. Sample processing was performed at a Genomics Core Facility, “KFB—Center of Excellence for Fluorescent Bioanalytics” (Regensburg, Germany).
Normalised probe set signals in log2 scale were calculated by using the RMA algorithm. Average linkage hierarchical clusters of differentially expressed genes were generated by using Cluster 3.0 and visualized by java TreeView.
In Arabidopsis, the DAMPs-dependent elicitation of PTI is known to be accompanied by a deep immune gene transcriptional reprogramming. […] The transcriptomic analysis was carried out by using Arabidopsis 1.0 ST microarray chip (Affymetrix, Santa Clara, CA, USA) and Differentially Expressed Genes (DEGs) were selected using two criteria: log2 expression ratios ≥1.5-fold or […] and Student's t-test p-value≤0.05.

[1] = 100 μM, 1 h, 14-day old Arabidopsis plants
[2] = 100 μM, 1 h, Col-0 plants, vs control

OC[C@H]1O[C@@H](O[C@H]2[C@H](O)[C@@H](O)[C@H](O)O[C@@H]2CO)[C@H](O)[C@@H](O)[C@@H]1O [Cellobiose, β-D-glucopyranosyl(1→4)D-glucopyranose]
changes in expression, number of differentially expressed genes [1]: 440 genes
downregulated genes [1]: 94 genes
upregulated genes [1]: 346 genes
AT1G02360 putative chitinase gene expression [2]: 1.03 fold change
AT1G02920 glutathione S-transferase F7 gene expression [2]: 1.10 fold change
AT1G02930 glutathione S-transferase F6 gene expression [2]: 1.18 fold change
AT1G03220 aspartyl protease-like protein gene expression [2]: 1.08 fold change
AT1G07400 class I heat shock protein gene expression [2]: 2.58 fold change
AT1G11100 SNF2, helicase and zinc-finger domain-containing protein gene expression [2]: 1.70 fold change
AT1G13520 hypothetical protein gene expression [2]: 2.05 fold change
AT1G14540 peroxidase 4 gene expression [2]: 1.22 fold change
AT1G16110 wall associated kinase-like 6 gene expression [2]: 1.46 fold change
AT1G18382 gene expression [2]: 1.39 fold change
AT1G18570 myb domain protein 51 gene expression [2]: 1.46 fold change
AT1G19020 hypothetical protein gene expression [2]: 1.68 fold change
AT1G24145 hypothetical protein gene expression [2]: 1.15 fold change
AT1G27020 hypothetical protein gene expression [2]: 1.06 fold change
AT1G30700 FAD-binding Berberine family protein gene expression [2]: 1.73 fold change
AT1G30755 hypothetical protein gene expression [2]: 1.08 fold change
AT1G36622 hypothetical protein gene expression [2]: 1.62 fold change
AT1G36640 hypothetical protein gene expression [2]: 1.27 fold change
AT1G49000 hypothetical protein gene expression [2]: 1.67 fold change
AT1G51790 leucine-rich repeat protein kinase-like protein gene expression [2]: 1.99 fold change
AT1G51800 putative leucine-rich repeat protein kinase gene expression [2]: 2.44 fold change
AT1G51820 SIF2 gene expression [2]: 6.99 fold change
AT1G51850 Leucine-rich repeat protein kinase family protein gene expression [2]: 4.14 fold change
AT1G51890 probable LRR receptor-like protein kinase gene expression [2]: 1.91 fold change
AT1G51920 hypothetical protein gene expression [2]: 1.55 fold change
AT1G52200 PLAC8 family protein gene expression [2]: 1.57 fold change
AT1G53625 hypothetical protein gene expression [2]: 1.55 fold change
AT1G54050 CIII heat shock protein 17.4 gene expression [2]: 1.36 fold change
AT1G55450 S-adenosyl-L-methionine-dependent methyltransferases superfamily protein gene expression [2]: 1.19 fold change
AT1G59865 hypothetical protein gene expression [2]: 2.57 fold change
AT1G61360 G-type lectin S-receptor-like serine/threonine-protein kinase gene expression [2]: 1.18 fold change
AT1G61560 MLO-like protein 6 gene expression [2]: 1.14 fold change
AT1G64400 long-chain acyl-CoA synthetase gene expression [2]: 1.18 fold change
AT1G65845 hypothetical protein gene expression [2]: 1.99 fold change
AT1G74310 chaperone protein ClpB1 gene expression [2]: 2.87 fold change
AT1G79680 wall-associated receptor kinase-like 10 gene expression [2]: 1.62 fold change
AT2G02010 glutamate decarboxylase 4 gene expression [2]: 1.11 fold change
AT2G15220 basic secretory protein family protein gene expression [2]: 1.08 fold change
AT2G17740 cysteine/histidine-rich C1 domain-containing protein gene expression [2]: 1.04 fold change
AT2G19190 FLG22-induced receptor-like kinase 1 gene expression [2]: 1.38 fold change
AT2G22880 VQ motif-containing protein gene expression [2]: 1.35 fold change
AT2G26150 heat stress transcription factor A-2 gene expression [2]: 2.19 fold change
AT2G26560 phospholipase A 2A gene expression [2]: 2.02 fold change
AT2G27660 cysteine/histidine-rich C1 domain-containing protein gene expression [2]: 1.63 fold change
AT2G29500 HSP20 family protein gene expression [2]: 3.11 fold change
AT2G36220 hypothetical protein gene expression [2]: 1.44 fold change
AT2G36690 2-oxoglutarate (2OG) and Fe(II)-dependent oxygenase superfamily protein gene expression [2]: 1.99 fold change
AT2G38870 PR-6 proteinase inhibitor family protein gene expression [2]: 1.27 fold change
AT2G39200 protein MILDEW RESISTANCE LOCUS O 12 gene expression [2]: 2.09 fold change
AT2G39210 major facilitator protein gene expression [2]: 1.67 fold change
AT2G39518 hypothetical protein gene expression [2]: 2.22 fold change
AT2G43620 chitinase family protein gene expression [2]: 2.15 fold change
AT2G44490 PEN2 gene expression [2]: 1.20 fold change
AT2G46240 BCL-2-associated athanogene 6 gene expression [2]: 2.00 fold change
AT3G08970 J domain protein ATERDJ3A gene expression [2]: 2.46 fold change
AT3G09350 protein Fes1A gene expression [2]: 2.18 fold change
AT3G12580 heat shock protein 70-4 gene expression [2]: 3.24 fold change
AT3G12910 no apical meristem domain-containing transcriptional regulator gene expression [2]: 1.36 fold change
AT3G14200 chaperone DnaJ-domain containing protein gene expression [2]: 2.55 fold change
AT3G15500 ATAF-like NAC-domain transcription factor gene expression [2]: 1.20 fold change
AT3G16030 G-type lectin S-receptor-like serine/threonine-protein kinase CES101 gene expression [2]: 1.47 fold change
AT3G22060 Receptor-like protein kinase-related family protein gene expression [2]: 1.31 fold change
AT3G24500 multiprotein-bridging factor 1c gene expression [2]: 1.75 fold change
AT3G26210 cytochrome P450 71B23 gene expression [2]: 1.35 fold change
AT3G46280 protein kinase-like protein gene expression [2]: 4.51 fold change
AT3G51910 heat stress transcription factor A-7a gene expression [2]: 1.35 fold change
AT3G54420 chitinase class IV gene expression [2]: 1.74 fold change
AT4G01750 rhamnogalacturonan xylosyltransferase 2 gene expression [2]: 2.59 fold change
AT4G11890 receptor-like cytosolic kinase ARCK1 gene expression [2]: 1.75 fold change
AT4G12400 carboxylate clamp-tetratricopeptide repeat protein gene expression [2]: 3.23 fold change
AT4G15233 ABC transporter G family member 42 gene expression [2]: 1.66 fold change
AT4G21120 amino acid transporter 1 gene expression [2]: 1.07 fold change
AT4G22470 protease inhibitor/seed storage/lipid transfer protein (LTP) family protein gene expression [2]: 1.77 fold change
AT4G22710 cytochrome P450, family 706, subfamily A, polypeptide 2 gene expression [2]: 1.15 fold change
AT4G23220 cysteine-rich receptor-like protein kinase 14 gene expression [2]: 1.69 fold change
AT4G23280 putative cysteine-rich receptor-like protein kinase 20 gene expression [2]: 1.14 fold change
AT4G23570 phosphatase SGT1a gene expression [2]: 2.22 fold change
AT4G25110 metacaspase 2 gene expression [2]: 1.74 fold change
AT4G26200 1-aminocyclopropane-1-carboxylate synthase 7 gene expression [2]: 2.14 fold change
AT4G27280 EF-hand, calcium binding motif-containing protein gene expression [2]: 1.33 fold change
AT4G38550 phospholipase like protein (PEARLI 4) family gene expression [2]: 1.60 fold change
AT5G05300 hypothetical protein gene expression [2]: 1.78 fold change
AT5G10695 hypothetical protein gene expression [2]: 2.27 fold change
AT5G14470 GHMP kinase family protein gene expression [2]: 1.21 fold change
AT5G15870 glycosyl hydrolase family 81 protein gene expression [2]: 1.14 fold change
AT5G19230 GPI-anchored glycoprotein membrane precursor gene expression [2]: 1.24 fold change
AT5G35320 hypothetical protein gene expression [2]: 1.02 fold change
AT5G37600 glutamine synthetase 1; 1 gene expression [2]: 1.56 fold change
AT5G37670 heat shock protein 15.7 gene expression [2]: 1.04 fold change
AT5G39020 putative receptor-like protein kinase gene expression [2]: 1.02 fold change
AT5G39580 peroxidase 62 gene expression [2]: 3.82 fold change
AT5G44070 glutathione gamma-glutamylcysteinyltransferase 1 gene expression [2]: 1.44 fold change
AT5G44585 hypothetical protein gene expression [2]: 2.20 fold change
AT5G44910 Toll-Interleukin-Resistance domain-containing protein gene expression [2]: 1.10 fold change
AT5G46050 peptide transporter 3 gene expression [2]: 1.74 fold change
AT5G48530 hypothetical protein gene expression [2]: 2.07 fold change
AT5G48540 receptor-like protein kinase-related family protein gene expression [2]: 1.85 fold change
AT5G48570 peptidyl-prolyl cis-trans isomerase FKBP65 gene expression [2]: 3.39 fold change
AT5G51440 heat shock protein 23.5 gene expression [2]: 1.36 fold change
AT5G52640 heat shock protein 90.1 gene expression [2]: 3.70 fold change
AT5G57220 cytochrome P450, family 81, subfamily F, polypeptide 2 gene expression [2]: 1.07 fold change
AT5G62020 heat stress transcription factor B-2a gene expression [2]: 1.00 fold change
AT5G64120 peroxidase 71 gene expression [2]: 1.42 fold change
AT5G67450 zinc-finger protein 1 gene expression [2]: 1.44 fold change
MYB51 (AT1G18570) Expression (100 μM, 1 h, microarray): 1.46 Fold change (treatment/CTR)
MYB73 (AT4G37260) Expression (100 μM, 1 h, microarray): 1.06 Fold change (treatment/CTR)
NAC047 (AT3G04070) Expression (100 μM, 1 h, microarray): 1.81 Fold change (treatment/CTR)
NAC055 (AT3G15500) Expression (100 μM, 1 h, microarray): 1.20 Fold change (treatment/CTR)
NAC057 (AT3G17730) Expression (100 μM, 1 h, microarray): 1.40 Fold change (treatment/CTR)
NAC058 (AT3G18400) Expression (100 μM, 1 h, microarray): 1.41 Fold change (treatment/CTR)
NAC078 (AT5G04410) Expression (100 μM, 1 h, microarray): 1.31 Fold change (treatment/CTR)
Target of MYB protein 1 (AT1G76970) Expression (100 μM, 1 h, microarray): 1.64 Fold change (treatment/CTR)
WRKY11 (AT4G31550) Expression (100 μM, 1 h, microarray): 1.95 Fold change (treatment/CTR)
WRKY15 (AT2G23320) Expression (100 μM, 1 h, microarray): −1.06 Fold change (treatment/CTR)
WRKY18 (AT4G31800) Expression (100 μM, 1 h, microarray): 4.02 Fold change (treatment/CTR)
WRKY22 (AT4G01250) Expression (100 μM, 1 h, microarray): 2.34 Fold change (treatment/CTR)
WRKY30 (AT5G24110) Expression (100 μM, 1 h, microarray): 1.30 Fold change (treatment/CTR)
WRKY33 (AT2G38470) Expression (100 μM, 1 h, microarray): 1.33 Fold change (treatment/CTR)
WRKY40 (AT1G80840) Expression (100 μM, 1 h, microarray): −1.05 Fold change (treatment/CTR)
WRKY61 (AT1G18860) Expression (100 μM, 1 h, microarray): −1.05 Fold change (treatment/CTR)
WRKY72 (AT5G15130) Expression (100 μM, 1 h, microarray): 1.41 Fold change (treatment/CTR)
LOX4 (AT1G72520) gene expression, Microarray (vs CTR): 1.68 fold change
MPK3 (AT3G45640) gene expression, Microarray (vs CTR): 1.22 fold change
MPK6 (AT2G43790) gene expression, Microarray (vs CTR): −1.06 fold change
PAD3 (AT3G26830) gene expression, Microarray (vs CTR): −1.04 fold change
PEN3 (AT1G59870) gene expression, Microarray (vs CTR): 1.55 fold change
PR1 (AT2G14610) gene expression, Microarray (vs CTR): 1.91 fold change
WRKY18 (AT4G31800) gene expression, Microarray (vs CTR): 4.02 fold change
WRKY22 (AT4G01250) gene expression, Microarray (vs CTR): 2.34 fold change
WRKY33 (AT2G38470) gene expression, Microarray (vs CTR): 1.33 fold change
IGMT2 (At1G21120) gene expression, Microarray (vs mock): −1.14 fold change
